Measured values as given in patent publication US20010003121A1, “Novel compounds” (AstraZeneca UK Limited, priority 1997, published 2001).
Where a name gives a salt, the structure may show the parent alone.

Row | melting point | Compound
1 | 180 to 182 °C | O=C(NCC12CC3CC(CC(C3)C1)C2)c1ccc(Cl)cc1Cl
2 | 185 to 186 °C | COc1cccc(OC)c1C(=O)NCC12CC3CC(CC(C3)C1)C2
3 | 181 to 183 °C | CN(C)CCOc1ccccc1C(=O)NCC12CC3CC(CC(C3)C1)C2.Cl
4 | 144 to 145 °C | O=C(NCC12CC3CC(CC(C3)C1)C2)c1cc(NCCCl)ccc1Cl
5 | 154 to 155 °C | O=C(NCC12CC3CC(CC(C3)C1)C2)c1cc(N2CC2)ccc1Cl
6 | 258 to 260 °C | CN(C)CCNc1ncccc1C(=O)NCC12CC3CC(CC(C3)C1)C2 (as salt: hydrochloride) [Example 32, 2-(2-(N,N-Dimethylamino)ethylamino)-N-(tricyclo[3.3.1.1^3,7]dec-1-ylmethyl)-3-pyridine carboxamide, dihydrochloride]
7 | 266 to 268 °C | O=C(NCC12CC3CC(CC(C3)C1)C2)c1cccnc1NCCN1CCCC1 (as salt: hydrochloride) [Example 33, 2-(2-(Pyrrolidin-1-yl)ethylamino)-N-(tricyclo[3.3.1.1^3,7]dec-1-ylmethyl)-3-pyridine carboxamide, dihydrochloride]
8 | 160 to 162 °C | CNc1ncccc1C(=O)NCC12CC3CC(CC(C3)C1)C2 (as salt: hydrochloride) [Example 34, 2-(Methylamino)-N-(tricyclo[3.3.1.1^3,7]dec-1-ylmethyl)-3-pyridine carboxamide, dihydrochloride]
9 | 204 to 205 °C | CN(C)c1ncccc1C(=O)NCC12CC3CC(CC(C3)C1)C2 (as salt: hydrochloride) [Example 35, 2-(Dimethylamino)-N-(tricyclo[3.3.1.1^3,7]dec-1-ylmethyl)-3-pyridine carboxamide, hydrochloride]
10 | 157 to 158 °C | O=C(NCC12CC3CC(CC(C3)C1)C2)c1cccnc1N1CCCC1 (as salt: hydrochloride) [Example 36, 2-(Pyrrolidin-1-yl) N-(tricyclo[3.3.1.1^3,7]dec-1-ylmethyl)-3-pyridine carboxamide, dihydrochloride]
11 | 177 to 178 °C | CN(C)CCCOc1ccc(Sc2ncccc2C(=O)NCC23CC4CC(CC(C4)C2)C3)cc1 (as salt: hydrochloride) [Example 48, 2-(4-(3-N,N-dimethylamino)propyloxyphenylthio)-N-(tricyclo[3.3.1.1^3,7]dec-1-ylmethyl)-3-pyridine carboxamide, dihydrochloride]
12 | 142 to 143 °C (dec.) | O=C(NCC12CC3CC(CC(C3)C1)C2)c1cc(NCCN2CCCCC2)ccc1Cl (as salt: hydrochloride) [Example 70, 2-Chloro-5-(2-(piperidin-1-yl)ethylamino)-N-(tricvclo(3.3.1.1^3,7]dec-1-ylmethyl)-benzamide, hydrochloride]
13 | 143 °C (dec.) | O=C(NCC12CC3CC(CC(C3)C1)C2)c1cc(NCCNCCO)ccc1Cl (as salt: hydrochloride) [Example 71, 5-(N-(2-Hydroxyethyl)-2-aminoethyl)amino-2-chloro-N-(tricyclo[3.3.1.1^3,7]dec-1-ylmethyl)-benzamide, dihydrochloride]
14 | 184 °C | NCCSc1ncccc1C(=O)NCC12CC3CC(CC(C3)C1)C2 (as salt: trifluoroacetate) [Example 31, 2-(2-Aminoethylthio)-N-(tricyclo[3.3.1.1^3,7]dec-1-ylmethyl)-3-pyridine carboxamide, trifluoroacetate]
15 | 197 to 198 °C | O=C(NCC12CC3CC(CC(C3)C1)C2)c1cc(Cl)cc(Cl)c1 [Example 2, 3,5-Dichloro-N-(tricyclo[3.3.1.1^3,7]dec-1-methyl)-benzamide]
16 | 246 to 247 °C | O=C(NCC12CC3CC(CC(C3)C1)C2)c1c(Cl)cccc1Cl [Example 4, 2,6-Dichloro-N-(tricyclo[3.3.1.1^3,7]dec-1-methyl)-benzamide]
17 | 194 to 195 °C | O=C(NCC12CC3CC(CC(C3)C1)C2)c1ccccc1I [Example 8, 2-Iodo-N-(tricyclo[3.3.1.1^3,7]dec-1-methyl)-benzamide]
18 | > 250 °C | O=C(NCC12CC3CC(CC(C3)C1)C2)c1ccccc1[N+](=O)[O-] [Example 9, 2-Nitro-N-(tricyclo[3.3.1.1^3,7]dec-1-methyl)-benzamide]
19 | 165 to 167 °C | O=C(NCC12CC3CC(CC(C3)C1)C2)c1ccccc1C(F)(F)F [Example 11, 2-(Trifluoromethyl)-N-(tricyclo[3.3.1.1^3,7]dec-1-methyl)-benzamide]
20 | 162 to 163 °C | O=C(NCC12CC3CC(CC(C3)C1)C2)c1c(F)cccc1F [Example 12, 2,6-Difluoro-N-(tricyclo[3.3.1.1^3,7]dec-1-methyl)-benzamide]
21 | 151 to 153 °C | O=C(NCC12CC3CC(CC(C3)C1)C2)c1c(F)cccc1C(F)(F)F [Example 13, 2-(Trifluoromethyl)-6-flouro-N-(tricyclo(3.3.1.1^3,7]dec-1-methyl)-benzamide]
22 | 182 to 183 °C | Nc1cccc(Cl)c1C(=O)NCC12CC3CC(CC(C3)C1)C2 [Example 14, 2-Amino-6-chloro-N-(tricyclo[3.3.1.1^3,7]dec-1-methyl)-benzamide]

Row | melting point | Compound
23 | 62 to 65 °C | N#Cc1ccccc1Sc1ccccc1C(=O)NCC12CC3CC(CC(C3)C1)C2 [Example 16, 2-(2-Cyanophenylthio)-N-(tricyclo[3.3.1.1^3,7]dec-1-methyl)-benzamide]
24 | 166 to 169 °C | Cc1ccc(Sc2ncccc2C(=O)NCC23CC4CC(CC(C4)C2)C3)cc1 [Example 17, 2-(4-Methylphenylthio)-N-(tricyclo[3.3.1.1^3,7]dec-1-methyl)-3-pyridine carboxamide]
25 | 171 to 172 °C | CSc1ccccc1C(=O)NCC12CC3CC(CC(C3)C1)C2 [Example 18, 2-(Methylthio)-N-(tricyclo[3.3.1.1^3,7]dec-1-methyl)-benzamide]
26 | 125 to 126 °C | O=C(NCC12CC3CC(CC(C3)C1)C2)c1cccc(Cl)c1 [Example 20, 3-Chloro-N-(tricyclo[3.3.1.1^3,7]dec-1-methyl)-benzamide]
27 | 153 to 154 °C | Cc1ccc(C)c(C(=O)NCC23CC4CC(CC(C4)C2)C3)c1 [Example 22, 2,5-Dimethyl-N-(tricyclo[3.3.1.1^3,7]dec-1-methyl)-benzamide]
28 | 156 to 157 °C | O=C(NCC12CC3CC(CC(C3)C1)C2)c1ccccc1Cc1ccccc1 [Example 23, 2-(Phenylmethyl) -N-(tricyclo[3.3.1.1^3,7]dec-1-methyl)-benzamide]
29 | 101 to 103 °C | CC(C)(C)OC(=O)COc1ccccc1C(=O)NCC12CC3CC(CC(C3)C1)C2 [Example 25, 2-[[(Tricyclo[3.3.1.1^3,7]dec-1-ylmethyl)amino]carbony]phenyl-1-oxyacetic acid, 1,1-dimethylethyl ester]
30 | 214 °C | C[S+]([O-])c1ncccc1C(=O)NCC12CC3CC(CC(C3)C1)C2 (stereo not shown) [Example 27, 2-(Methylsulphoxide)-N-(tricyclo[3.3.1.1^3,7]dec-1-methyl)-3-pyridine carboxamide]
31 | 206 to 207 °C | O=C(NCC12CC3CC(CC(C3)C1)C2)c1ccc2[nH]ccc2c1 [Example 28, N-(tricyclo[3.3.1.1^3,7]dec-1-methyl)-5-indole carboxamide]
32 | 132 to 134 °C | Nc1cccc(Cl)c1C(=O)NCCC12CC3CC(CC(C3)C1)C2 [Example 29, 2-Amino-6-chloro-N-(2-[tricyclo[3.3.1.1^3,7]dec-1-yl]ethyl)-benzamide]
33 | 135 to 136 °C | COc1ccc(OC)c(Sc2ncccc2C(=O)NCC23CC4CC(CC(C4)C2)C3)c1 [Example 37, 2-(2,5-Dimethoxyphenylthio)-N-(tricyclo[3.3.1.1^3,7]dec-1-ylmethyl)-3-pyridine carboxamide]
34 | 126 to 127 °C | CSc1ccc(Cl)c(C(=O)NCC23CC4CC(CC(C4)C2)C3)c1 [Example 38, 2-Chloro-5-methylthio-N-(tricyclo[3.3.1.1^3,7]dec-1-ylmethyl)-benzamide]
35 | 193 to 195 °C | CN(C)CCSc1ccccc1C(=O)NCC12CC3CC(CC(C3)C1)C2 [Example 39, 2-(2-(N,N-Dimethylamino)ethylthio)-N-(tricyclo[3.3.1.1^3,7]dec-1-ylmethyl)-benzamide]
36 | 130 to 131 °C | COc1ccc(Sc2ncccc2C(=O)NCC23CC4CC(CC(C4)C2)C3)cc1 [Example 40, 2-(4-Methoxyphenylthio)-N-(tricyclo[3.3.1.1^3,7]dec-1-ylmethyl)-3-pyridine carboxamide]
37 | 149 to 151 °C | O=C(NCC12CC3CC(CC(C3)C1)C2)c1cccc(F)c1Cl [Example 41, 2-Chloro-3-fluoro-N-(tricyclo[3.3.1.1^3,7]dec-1-ylmethyl)-benzamide]
38 | 176 to 177 °C | O=C(NCC12CC3CC(CC(C3)C1)C2)c1cc(F)ccc1Cl [Example 43, 2-Chloro-5-fluoro-N-(tricyclo[3.3.1.1^3,7]dec-1-ylmethyl)-benzamide]
39 | 108 to 110 °C | O=C(NCC12CC3CC(CC(C3)C1)C2)c1cccnc1Sc1cc(O)ccc1O [Example 44, 2-(2,5-Dihydroxyphenylthio)-N-(tricyclo[3.3.1.1^3,7]dec-1-ylmethyl)-3-pyridine carboxamide]
40 | 147 to 150 °C | O=C(O)CSc1ncccc1C(=O)NCC12CC3CC(CC(C3)C1)C2 [Example 45, 3-[[(Tricyclo[3.3.1.1^3,7]dec-1-ylmethyl)amino]carbonyl]pyridyl-2-thioacetic acid]
41 | 185 to 186 °C | O=C(O)COc1ccc(Sc2ncccc2C(=O)NCC23CC4CC(CC(C4)C2)C3)cc1 [Example 47, 3-[[(Tricyclo[3.3.1.1^3,7]dec-1-ylmethyl)amino]carbonyl]pyridyl-2-(4-phenylthio) oxyacetic acid]
42 | 160 to 161 °C | CSc1nc(C)ccc1C(=O)NCC12CC3CC(CC(C3)C1)C2 [Example 49, (2-Methylthio-6-methyl)-N-(tricyclo[3.3.1.1^3,7]dec-1-ylmethyl)-3-pyridine carboxamide]
43 | 109 to 113 °C | O=C(O)CCCOc1ccccc1C(=O)NCC12CC3CC(CC(C3)C1)C2 [Example 50, 2-[[(Tricyclo[3.3.1.1^3,7]dec-1-ylmethyl)amino]carbonyl]phenyl-1-oxybutyric acid]
